Data reported in US20250152574A1 (BIOGEN MA INC., priority 2022, published 2025).

molecular target: T1, EBP (Homo sapiens, UniProt Q15125); assay: EBP Functional Assay (EBP immunoaffinity LC-MS assay); assay type: biochemical; settings: HEK293T cells as source of EBP enzyme; substrate zymosterol-d5, 37° C. for 4 h; percent conversion to dehydrolathosterol-d5 by LC-APCI MRM MS
T1 construct: HEK293T cells were utilized as the source of EBP enzyme; endogenous in cells; host or cells: HEK293T
Method in brief: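 IC50 comes from a 4-parameter logistic fit of zymosterol-d5-to-product percent conversion, measured by LC-APCI MRM MS after sterol extraction. Compounds were preincubated 30 min with EBP from HEK293T cells before deuterated substrate was added for 4 h at 37° C; Tasin-1 served as reference.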

T1 sequence (Q15125 whole entry): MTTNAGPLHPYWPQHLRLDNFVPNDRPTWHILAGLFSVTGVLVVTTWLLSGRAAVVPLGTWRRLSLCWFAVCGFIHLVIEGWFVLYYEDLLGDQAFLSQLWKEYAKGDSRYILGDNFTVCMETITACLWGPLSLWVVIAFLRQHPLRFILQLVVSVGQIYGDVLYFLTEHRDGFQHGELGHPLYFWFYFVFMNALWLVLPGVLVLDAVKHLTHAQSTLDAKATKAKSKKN

First: N#Cc1cc(F)cc(S(=O)(=O)N2CCC3(CC2)CC(N2CC4(COC4)C2)C3)c1 [Example 96, 3-((2-(2-oxa-6-azaspiro[3.3]heptan-6-yl)-7-azaspiro[3.5]nonan-7-yl)sulfonyl)-5-fluorobenzonitrile]
Second: COc1ncc(C)cc1S(=O)(=O)N1CCC2(CC1)CC(N1CC3(COC3)C1)C2 [Example 93, 6-(7-((2-methoxy-5-methylpyridin-3-yl)sulfonyl)-7-azaspiro[3.5]nonan-2-yl)-2-oxa-6-azaspiro[3.3]heptane]
The IC50 of the first is higher: 0.25 to 1.5 µM for the first, 0.1 to 0.25 µM for the second.

First: COc1nccc(S(=O)(=O)N2CCC3(CCC(N4CCOCC4)C3)CC2)c1F (centres unmarked) [Example 33, 4-(8-((3-Fluoro-2-methoxypyridin-4-yl)sulfonyl)-8-azaspiro[4.5]decan-2-yl)morpholine]
Second: Cc1cc(S(=O)(=O)N2CCC3(CCC(N4CC5(COC5)C4)C3)CC2)cnc1C (centres unmarked) [Example 109]
The IC50 of the first is lower: less than 0.1 µM for the first, 0.1 to 0.25 µM for the second.

Compared with `O=S(=O)(c1ccc(OC(F)F)cc1)N1CCC2(CC1)CC(N1CC3(CCCOC3)C1)CO2` (centres unmarked) [Example 143, 8-((4-(difluoromethoxy)phenyl)sulfonyl)-3-(6-oxa-2-azaspiro[3.5]nonan-2-yl)-1-oxa-8-azaspiro[4.5]decane], `O=S(=O)(c1ccc(OC(F)F)cc1)N1CCC2(CC1)CC(N1CCC3(CCOC3)C1)CO2` (centres unmarked) [Example 70, 8-((4-(Difluoromethoxy)phenyl)sulfonyl)-3-(2-oxa-7-azaspiro[4.4]nonan-7-yl)-1-oxa-8-azaspiro[4.5]decane] is higher in IC50: 0.1 to 0.25 µM for the first, 0.25 to 1.5 µM for the second. The first is the more potent here.

Compared with `Cc1nc(C(F)(F)F)ccc1S(=O)(=O)N1CCC2(CC1)CC(NC1CC3(COC3)C1)CO2` (centres unmarked) [Example 137, 8-((2-methyl-6-(trifluoromethyl)pyridin-3-yl)sulfonyl)-N-(2-oxaspiro[3.3]heptan-6-yl)-1-oxa-8-azaspiro[4.5]decan-3-amine], `Cc1nc(C(F)(F)F)ncc1S(=O)(=O)N1CCC2(CC1)CC(N(C)C1CC3(COC3)C1)CO2` (centres unmarked) [Example 140, N-methyl-8-((4-methyl-2-(trifluoromethyl)pyrimidin-5-yl)sulfonyl)-N-(2-oxaspiro[3.3]heptan-6-yl)-1-oxa-8-azaspiro[4.5]decan-3-amine] is lower in IC50: 0.25 to 1.5 µM for the first, less than 0.1 µM for the second.

First: O=S(=O)(c1cnc2ccccc2c1)N1CCC2(CCC(N3CC4(COC4)C3)C2)CC1 (centres unmarked) [Example 103]
Second: Cc1cc(S(=O)(=O)N2CCC3(CCC(N4CC5(COC5)C4)C3)CC2)n(C)n1 (centres unmarked) [Example 142, 6-(8-((1,3-dimethyl-1H-pyrazol-5-yl)sulfonyl)-8-azaspiro[4.5]decan-2-yl)-2-oxa-6-azaspiro[3.3]heptane]
The IC50 of the first is lower: less than 0.1 µM for the first, 0.1 to 0.25 µM for the second. The first is the more potent here.

First: COCCN(C)C1CC2(CCN(S(=O)(=O)c3cc(C)nn3C)CC2)C1 [Example 91, 7-((1,3-dimethyl-1H-pyrazol-5-yl)sulfonyl)-N-(2-methoxyethyl)-N-methyl-7-azaspiro[3.5]nonan-2-amine]
Second: Cc1cc(S(=O)(=O)N2CCC3(CCC(N4C[C@H]5C[C@@H]4CO5)C3)CC2)n(C)n1 (stereo partly drawn) [Example 88, (1R,4R)-5-(8-((1,3-dimethyl-1H-pyrazol-5-yl)sulfonyl)-8-azaspiro[4.5]decan-2-yl)-2-oxa-5-azabicyclo[2.2.1]heptane]
The IC50 of the first is higher: 0.25 to 1.5 µM for the first, 0.1 to 0.25 µM for the second. The second is the more potent here.

`Cn1nc(C2CC2)cc1S(=O)(=O)N1CCC2(CC1)CC(NC1CCOCC1)C2` [Example 120, 7-((3-cyclopropyl-1-methyl-1H-pyrazol-5-yl)sulfonyl)-N-(tetrahydro-2H-pyran-4-yl)-7-azaspiro[3.5]nonan-2-amine] and `Cn1nc(C(F)F)cc1S(=O)(=O)N1CCC2(CCC(N3CC4(COC4)C3)C2)CC1` (centres unmarked) [Example 125, 6-(8-((3-(difluoromethyl)-1-methyl-1H-pyrazol-5-yl)sulfonyl)-8-azaspiro[4.5]decan-2-yl)-2-oxa-6-azaspiro[3.3]heptane] cannot be ordered by IC50: less than 0.1 µM for the first, less than 0.1 µM for the second.

First: O=S(=O)(c1ccc(OC(F)F)cc1)N1CCC2(CC1)C[C@H](N1CC[C@]3(CCOC3)C1)CO2 (single isomer, unassigned) [Example 30b]
Second: O=S(=O)(c1ccc(OC(F)F)cc1)N1CCC2(CC[C@H](N3C[C@H]4C[C@@H]3CO4)C2)CC1 (single isomer, unassigned) [Example 86b]
The IC50 of the first is higher: 0.25 to 1.5 µM for the first, less than 0.1 µM for the second. The second is the more potent here.

`Cc1ccc(S(=O)(=O)N2CCC3(CC2)C[C@@H](N2CC(O)C2)CO3)c(Cl)c1` (single isomer, unassigned) [Example 53a] gave an IC50 of less than 0.1 µM.
